Assay results published in patent US7531164B2 (priority 2005, dated 2009).

How the values were obtained:
VSV = format: cell-based
AMLV = format: cell-based; details: AMLV envelope
HIV (denoted NL4-3) = format: cell-based; details: NL4-3 envelope
hepatitis C = assay: Working Example XI: transfusion of hepatitis C infected whole blood containing L-NMA; format: in vivo, human; details: whole blood containing 1 gm L-NMA per unit, infected with hepatitis C
Text: Whole blood containing 1 gm L-NMA per unit is transfused into a patient.

colon cancer = assay: Working Example III: prophylaxis of colon cancer in immunocompromised patient; format: in vivo, human; details: 5 gm LNMA or 10 mg vitamin B12 infused concurrently with cetuximab; two years later
Protocol: An immunocompromised patient at risk for colon cancer is given an initial loading dose of 200 mg/M^2 cetuximab as a 120 minute infusion with weekly maintenance doses of 125 mg/M^2 over 60 minutes weekly. Perfusion rate is 4 mL/min. Concurrently the patient is infused with 5 gm LNMA or 10 mg vitamin B12.
For each 50 ml vial: • 100 mg cetuximab • at a concentration of 2 mg/ml • 1mg LNMA or 2 mg Vitamin B-12 • 8.48 mg/ml sodium chloride • 1.88 mg/ml sodium phosphate dibasic heptahydrate • 0.42 mg/ml sodium phosphate monohydrate • water for injection to […]
The composition is administered in the case of Working Example III.

[1] = Working Example XII: atherosclerosis patient, anti-VEGFR plus NO inhibitor/scavenger; format: in vivo, human; details: 2 gms/day L-NMA or 10 mg/day vitamin B-12 with 100 mg/kg anti-VEGFR three times a week; six months later
Protocol: A person with atherosclerosis is administered 100 mg/kg anti-VEGFR three times a week via infusion and 2 gms/day of L-NMA or 10 mg/day vitamin B-12.

influenza A = assay: Working Example XVII: prophylaxis in immunocompromised patient exposed to influenza; format: in vivo, human; details: 5 gms/day L-NMA p.o. for one week, then amantadine 100 mg p.o. b.i.d. for two weeks
Protocol: An immunocompromised patient is exposed to a patient diagnosed with influenza. The patient is given 5 gms/day L-NMA p.o. After one week the patient tests positive for influenza A and L-NMA administration is stopped and the patient is given amantadine, 100 mg p.o., b.i.d. for two weeks.

[2] = Working Example IV: beta agonist response in heart failure patient; format: in vivo, human; details: 0.1 mg/kg LNMA for 24 hours; improves from 3 L/min
Protocol: A person with heart failure is admitted to a hospital for a dobutamine holiday (where a congestive heart failure patient spends 1-2 days in the hospital to receive a dobutamine drip every month or so). The patient is administered 0.1 mg/kg LNMA for 24 hours. Beta agonist sensitive response as measured by cardiac output improves from 3 L/min. to 3.5 L/min.

[3] = Working Example XIV: unstable angina patient, abciximab plus NO inhibitor/scavenger; format: in vivo, human; details: L-NMA (5g) or 10 mg vitamin B-12 IV with abciximab and heparin; at 30 days
Protocol: A patient with unstable angina presents to the emergency room.
Abciximab is administered at 0.25 mg/kg as an intravenous bolus followed by infusion of […] for 12 hours. Heparin is concurrently administered in a different line with an initial dosage of 70 μg/kg with continuing infusion to maintain ACT of 200-300.
L-NMA (5g) or 10 mg vitamin B-12 is administered IV through a different line.
Need for urgent revascularization is only 2% at 30 days.

[4] = Working Example V: asthma exacerbation frequency; format: in vivo, human; details: 1 gm/day LNMA four times a week for a year; normally four exacerbations of asthma per year
Text: An asymptomatic person who normally has four exacerbations of asthma per year is given 1 gm/day LNMA four times a week for a year. Exacerbation frequency decreases to once a year.

[5] = test system: EGFR expressing metastatic colorectal cancer; assay: Working Example XIII: EGFR expressing metastatic colorectal cancer patient; format: in vivo, human; details: 5 gm L-NMA or 10 mg vitamin B12 infused concurrently with cebuximab
Protocol: A person with EGFR expressing metastatic colorectal cancer is given an initial loading dose of 400 mg/m^2 cebuximab as a 120 minute infusion at 2.5 mL/min with weekly maintenance doses of 250 mg/M^2 over 60 minutes at 2.5 mL/min. Concurrently the patient is infused with 5 gm L-NMA or 10 mg vitamin B12.

HIV = assay: Working Example I: prophylaxis after exposure to HIV positive partner; format: in vivo, human; details: 1 gm L-NMMA Q 6 hrs for 3 days with AZT 600 mg; day 7
Protocol: A person finds that their partner the previous night is HIV positive. They present to the Emergency Room where they are given a prophylactic dose of AZT (600 mg dose) and a dose of 1 gm L-NMMA Q 6 hrs for 3 days. Blood titers for HIV are restive at day 7.

E.coli and HIV = assay: Working Example II: prophylaxis after exposure to blood infected by E.coli and HIV; format: in vivo, human; details: B12 10 mg with AZT 600 mg and ampicillin 1 gm for 6 days; at a week
Protocol: A patient is exposed to blood infected by “E.coli” and HIV following coronary artery bypass surgery. AZT (prophylactic dose of 600 mg) and B12 (which scavenges NO) (dose 10 mg) are given in combination with ampicillin (prophylactic dose of 1 gm) for 6 days Bacterial and HIV titer are undetectable at a week.

[6] = compared to envelope protein with no anti-CD4 or inhibitor

In the case of `COC(=O)[C@@H](N)CCCNC(=N)N[N+](=O)[O-]` [Inhibitor A, N^G-nitro-L-arginine methyl ester], the “% Infection” value (VSV) is reported as 41.9%, the “Mean (cells infected)” value (VSV) is reported as 120209 and the “Mean (cells infected)” value (AMLV; […], no-inhibitor AMLV mean 164904) is reported as 60090. For the same compound, the “% Infection” value (AMLV; [6]) was 36.4%, the “Mean (cells infected)” value (HIV (denoted NL4-3); […], no-inhibitor NL4-3 mean 108400, cells only 66) was 50359 and the “% Infection” value (HIV (denoted NL4-3); [6]) was 46.5%.
With `CNC(=N)NCCC[C@H](N)C(=O)O` [L-NMA, L-methylarginine] the “development of hepatitis C” value (hepatitis C) was “does not develop hepatitis C”, the colon cancer status (colon cancer) was “colon cancer free” and the “plaque destabilization and heart attack” value [1] was “plaque is not destabilized and no heart attack has occurred”. The Flu symptoms (influenza A) was “Flu symptoms disappear”, the “Beta agonist sensitive response as measured by cardiac output” value [2] was 3.5 L/min and the “Need for urgent revascularization” value [3] was 2%. The Exacerbation frequency [4] was “once a year”, the disease related symptoms [5] was “Improvement in disease related symptoms is noted” and the “Blood titers for HIV” value (HIV) was “restive”.
With `C/C1=C2/[N-][C@H]([C@H](CC(N)=O)[C@@]2(C)CCC(=O)NC[C@@H](C)OP(=O)([O-])O[C@H]2[C@@H](O)[C@@H](n3cnc4cc(C)c(C)cc43)O[C@@H]2CO)[C@]2(C)N=C(/C(C)=C3N=C(/C=C4N=C1[C@@H](CCC(N)=O)C\4(C)C)[C@@H](CCC(N)=O)[C@]\3(C)CC(N)=O)[C@@H](CCC(N)=O)[C@]2(C)CC(N)=O.[Co+3].[OH-]` [vitamin B12, hydroxocobalamin] the colon cancer status (colon cancer) was “colon cancer free”, the “plaque destabilization and heart attack” value [1] was “plaque is not destabilized and no heart attack has occurred” and the “Need for urgent revascularization” value [3] was 2%. The disease related symptoms [5] was “Improvement in disease related symptoms is noted” and the “Bacterial and HIV titer” value (E.coli and HIV) was “undetectable”.
